# Laboratory results as given in US5780489A, “Method for treating amyotrophic lateral sclerosis” (priority 1996, dated 1998).
# “Also recorded” adds a separate entry of the source. Where two headings read alike, the source gives them in different places.
# Columns and labels:
# ALS patients [1] = conditions: cited from earlier work; for survival in ALS (in words): human, in vivo
# [2] = tested on: chronic organotypic spinal cord cultures; conditions: in vitro, after SOD1 anti-sense oligonucleotides; cited from earlier work
# [3] = B Olsson et al., 1988; cited from earlier work
# [4] = Meister et al., 1986; cited from earlier work
# cells [5] = conditions: cited from earlier work
# [6] = Meister et al., 1986; cited from earlier work; remark: listed apart in the source
# [7] = tested on: rat cerebrospinal fluid (CSF); conditions: Shikama et al. 1995, cited from earlier work; for rate of uptake into rat cerebrospinal fluid: GSH versus GSH isopropyl ester
# cells [8] = conditions: Puri and Meister, 1983; cited from earlier work
# patients with ALS = assay: progression of ALS, phase II trial of OTZ and Riluzole versus Riluzole alone; assay type: in vivo, human; conditions: 9 months, 3000 mg p.o. t.i.d.
# Description: 5.3. OTZ in ALS Patients: Phase II Trial
# A phase II, bi-center, double-blind randomized controlled comparison trial of the efficacy of OTZ and the anti-glutamate agent, Riluzole, versus Riluzole alone in slowing of disease progression in patients with ALS (50 at each center) is performed. Patients receive treatment for 9 months. Riluzole is approved for marketing by the FDA.
# The OTZ and placebo capsules are identical in appearance. Riluzole is administered as tablets obtained from the manufacturer. Riluzole is administered at 50 mg bid to all subjects. The OTZ dose is the same as used in the Phase I study, 3000 mg p.o. t.i.d. However, the final determination of OTZ dose may be modified. Half the subjects receive active OTZ capsules and the other half receive identical appearing placebo capsules.
# The primary outcome measure is change in motor and pulmonary function after 9 months of experimental therapy as tested with the Tufts Quantitative Neuromuscular Exam ([…]) and FVC. The secondary outcome measure is based upon ALS Functional Rating Scores.
# Analysis is done on an intention to treat basis. The primary analysis tests the difference in average slopes of arm megascores between the OTZ and Riluzole combination and Riluzole alone groups using a two-way ANOVA with treatment and center in the model, with a two-sided alpha=0.05. […]
# 5-oxoprolinase = conditions: cited from earlier work
# GSH levels in rat brains = conditions: cited from earlier work
# [9] = tested on: GSH levels in some cell types; conditions: Williamson et al. 1981; cited from earlier work
# [10] = tested on: intracellular glutathione levels; conditions: cited from earlier work
# [11] = OTZ pharmacokinetics (plasma elimination and oral absorption); assay type: in vivo, human
# Description: The synthesis of glutathione, an endogenous antioxidant, is often limited by the supply of intracellular cysteine, one of the component amino acids of glutathione. […] Some of these patients continued taking OTZ capsules (up to 9 grams/day) for over two years.
# Subjects with ALS were enrolled in a tolerability, pharmacokinetics and pharmacodynamics study of OTZ in ALS patients. In this study, glutathione and cysteine levels in whole blood and CSF and OTZ pharmacokinetics were determined in ten to twenty subjects with ALS. Blood was obtained for baseline glutathione and cysteine levels. A spinal catheter was inserted and baseline CSF samples collected for determination of glutathione and cysteine levels. OTZ (90 ml 5% OTZ injection=4500 mg OTZ) was administered by intravenous infusion through a peripheral vein over 60±10 minutes. At various time points after the start of the OTZ infusion, blood and CSF samples were drawn for determination of OTZ and glutathione levels. The following day, subjects started taking OTZ capsules (3000 mg t.i.d.) for 28 days. After 7 and 14 days of treatment with OTZ capsules, blood was drawn for analyses of safety parameters, glutathione, cysteine and OTZ levels. On the last day of the treatment period, blood and CSF samples were drawn for analysis of OTZ, glutathione, and cysteine levels. The study endpoints were tolerability, and pharmacokinetic and pharmacodynamic data. Safety was determined by clinical history and examination, quantitative neuromuscular examination and a panel of safety laboratory tests. Nine subjects completed the study and samples are analyzed. In addition, CSF was drawn from patients without severe neurological disorders and the GSH levels are analyzed and compared to the levels for ALS patients.
# adverse experiences = assay type: in vivo, human; conditions: only minor
# Excerpt: The risk of any of these side effects occurring is small; however, should they occur, the dose of medication is reduced or discontinued entirely. However, OTZ is an experimental drug and unexpected side effects may occur.
# [12] = in vivo; cited from earlier work
# ALS patients [13] = conditions: two controlled studies; cited from earlier work
# [14] = tested on: transgenic mice which overexpress the mutant SOD1 protein; conditions: small, but statistically significant; cited from earlier work
# [15] = tested on: glutamate release at pre-synaptic terminals; conditions: cited from earlier work
# human cells = conditions: cited from earlier work
# [16] = esterase activity absent in human plasma; cited from earlier work
# [17] = by an esterase; cited from earlier work
# [18] = tested on: γ-glutamyl transpeptidase; conditions: proposed by Shikama et al.; cited from earlier work
# cellular ischemia = conditions: H Shikama et al., 1995; cited from earlier work
smiles,measurement,setting,value
"CC(=O)N[C@@H](CS)C(=O)O [N-acetylcysteine (NAC), N-acetylcysteine]",survival in ALS (in words),ALS patients [1],trend towards increasing survival in ALS patients
same,reversal of death process in spinal cord cultures,[2],reversed
same,bioavailability in human studies,[3],low bioavailability
N[C@@H](CS)C(=O)O [L-cysteine],oxidation at neutral pH,[4],oxidized spontaneously at neutral pH
same,transport into cells,cells [5],not transported efficiently into cells
same,transport into cells,cells [5]; listed as cysteine,not efficiently transported into most animal cells
same,toxicity of high extracellular levels,[6],high extracellular levels of cysteine can be toxic
"N[C@@H](CCC(=O)N[C@@H](CS)C(=O)NCC(=O)O)C(=O)O [GSH, L-γ-glutamyl-L-cysteinylglycine]",effect of administration on intracellular GSH levels,"cells [5]; Meister, U.S. Pat. No. 4,879,370",has not led to increased intracellular GSH levels
same,transport into cells,cells [5],not transported efficiently into cells; also recorded: not efficiently transported into most animal cells
same,rate of uptake into rat cerebrospinal fluid,[7],the same
same,protection of cells against toxic compounds,cells [8],can protect some cells against toxic compounds
"O=C1N[C@H](C(=O)O)CS1 [OTZ, L-2-oxothiazolidine-4-carboxylic acid]",rate of progression of ALS,patients with ALS,slows the rate of progression of ALS
same,conversion to cysteine (enzyme required),5-oxoprolinase,requires the enzyme 5-oxoprolinase
same,metabolism by 5-oxo-L-prolinase,"5-oxoprolinase; in vitro, in the presence of adenosine triphosphate",subjected to the action of 5-oxo-L-prolinase in the presence of adenosine triphosphate to produce S-carboxyl cysteine
same,GSH levels in rat brains,GSH levels in rat brains; Anderson and Meister 1989,no effect or only slightly increased GSH levels
same,level of GSH in rat brains,"GSH levels in rat brains; subcutaneous injections, Mesina et al. 1989",statistically significant increase in the level of GSH in rat brains
same,increase of GSH levels in some cell types,[9],effective in increasing GSH levels in some cell types
same,intracellular glutathione levels in animal models,[10],increases intracellular glutathione levels in animal models
same,elimination from plasma,[11]; after oral or intravenous administration,rapidly eliminated from plasma
same,absorption after oral administration,[11]; oral,readily absorbed after oral administration
same,half-life,"[11]; plasma, after oral or intravenous administration, read-out: T1/2 (elimination from plasma)",1 to 2 h
same,adverse experiences associated with OTZ,adverse experiences,"stomach upset, dizziness, insomnia, nausea, restlessness and headache"
Nc1nc2ccc(OC(F)(F)F)cc2s1 [Riluzole],known adverse experiences associated with Riluzole therapy,[12],"asthenia, fatigue and asymptomatic elevation of liver function tests"
same,improvement in strength,ALS patients [13],without a concomitant improvement in strength
same,prolongation of survival of ALS patients,"ALS patients [1]; G Bensimon et al., 1994",12%
same,survival in ALS (in words),ALS patients [1],extend survival in ALS; also recorded: improve survival in ALS; also recorded: small affect on survival
same,prolongation of lifespan in patients with ALS,"ALS patients [1]; two studies, statistically significant, but small, G Bensimon et al., 1994",18%
same,prolongation of survival in transgenic SOD1 mutant mice,[14],11%
same,release of glutamates at pre-synaptic terminals,[15],inhibits release of glutamates at pre-synaptic terminals
CCOC(=O)CNC(=O)[C@H](CS)NC(=O)CC[C@H](N)C(=O)OCC [GSH diethylester],entry into human cells,human cells,even more efficiently transported into human cells than the monoester
same,intracellular GSH levels in human cells,human cells,increase of intracellular GSH levels
same,stability in human blood,[16],stable in human blood
same,conversion to monoethyl (glycyl) ester in rodent blood plasma,[17],readily converted to monoethyl (glycyl) ester in rodent blood plasma
"CC(C)OC(=O)CNC(=O)[C@H](CS)NC(=O)CC[C@H](N)C(=O)O [GSH isopropyl ester, glutathione isopropyl ester]",rate of uptake into rat cerebrospinal fluid,[7],the same
same,total GSH (sum of GSH and GSH ester) in rat CSF,[7],only the ester increased the total GSH
same,stability in CSF,[7]; versus GSH,more stable that GSH in the CSF
same,affinity for γ-glutamyl transpeptidase,[18],reduced affinity
same,protection against cellular ischemia,cellular ischemia,provide protection against cellular ischemia
CCOC(=O)CNC(=O)[C@H](CS)NC(=O)CC[C@H](N)C(=O)O [GSH monoethylester],entry into human cells,human cells,able to enter human cells
same,intracellular GSH levels in human cells,human cells,increase in GSH levels
